Experimental data taken from US8188059B2, “Compounds and methods for modulating expression of GCGR” (Isis Pharmaceuticals, Inc., priority 2006, dated 2012).
Strand notation (5' to 3'): a small letter for the sugar, then the base; units joined by * are phosphorothioate-linked, units joined directly phosphodiester-linked; [ ] holds rarer units or linkages, { } end groups; capitals alone tell only the bases. e = 2'-O-(2-methoxyethyl) (MOE); [5mC] = 5-methylcytosine; d = 2'-deoxy (DNA)

What was measured:
Type in all cases: in vivo, mouse
[1] = Organ weights: liver, white adipose tissue, spleen, kidney (Example 4, Table 33); conditions: 48 h, C57/BL6 mice
Protocol: (§1) Eight-week old male C57/BL6 mice (Jackson Laboratory, Bar Harbor, Me.) were administered a single dose of GCGR oligonucleotide by intraperitoneal injection at a concentration of […]. Each dose group consisted of four animals. Shown in Table 31 are the sequences, motifs and conjugates of the GCGR antisense compounds used in this study. Bolded residues indicate 2′-O-methoxyethyl (2′-MOE) moieties. All compounds comprise phosphorothioate internucleoside linkages throughout and each cytosine is replaced with 5-methylcytosine. ISIS 386626, ISIS 386627 and ISIS 386628 further comprise a C16 conjugate group attached to the 2′-O position of the sugar via a diamide linkage (2′-OCH2C(═O)N(H)(CH2)4N(H)C(═O)—(CH2)15CH3). GCGR antisense compounds target published GCGR sequences, including Genbank® Accession No. BC031885.1 (SEQ ID NO: 7).
(§2) Mice were sacrificed 48 hours following injection to determine serum transaminase levels (Table 32); liver, white adipose tissue (WAT), spleen and kidney weight (Table 33); cholesterol, triglyceride and glucose levels (Table 34); GCGR mRNA levels (Tables 35-41); and full-length and total oligonucleotide concentration in liver and kidney (Table 42). Endpoints were assessed using methods described herein and well known to those of ordinary skill in the art. Data is included from a pre-treatment bleed (Pre-Bleed) and post-treatment bleed (Post-Bleed).

[2] = system: GCGR mRNA; experiment: GCGR mRNA levels in liver and estimated ED50, C57/BL6 mice, single i.p. dose (Example 5, Tables 44, 45)
Protocol: Eight-week old male C57/BL6 mice (Jackson Laboratory, Bar Harbor, Me.) were administered a single dose of GCGR antisense compound by intraperitonel (i.p.) injection at a concentration of 10, 3.2, 1, and 0.32 μmol·kg. Each dose group consisted of four animals. Shown in Table 43 are the sequences, motifs and conjugates of the GCGR antisense compounds used in this study. Bolded residues indicate 2′-O-methoxyethyl (2′-MOE) modifications and the italicized residues indicate methyleneoxy (4′-CH2—O-2′) BNA modifications. All antisense compounds comprise phosphorothioate internucleoside linkages throughout and each cytosine is replaced with 5-methylcytosine. GCGR antisense compounds target published GCGR nucleic acids, including Genbank Accession No. BC031885.1 (SEQ ID NO: 7).
(§3) To determine whether the phenotypic changes shown above correlated with a decrease in GCGR mRNA, treated animals were evaluated for levels of target mRNA in liver by RT, real time PCR according to methods described herein. Table 44 show results from direct comparisons of the antisense compounds targeting GCGR nucleic acid for their effect on target expression. Results are expressed as percent of saline control.

[3] = ALT & AST levels, C57/BL6 mice (Example 4, Table 32); conditions: for ALT Pre-Bleed / AST Pre-Bleed: pre-treatment bleed; for ALT Post-Bleed / AST Post-Bleed: 48 hours following injection
Protocol: as §1, §2

[4] = system: GCGR mRNA; experiment: GCGR mRNA levels in liver of C57/BL6 mice, single i.p. dose (Example 4, Tables 35-41); conditions: 48 h
Protocol: as §1, §2
as §3, with “by” for “by RT,”, “Tables 35 to 41” for “Table 44”

[5] = Triglyceride, cholesterol and glucose levels, pre-bleed and post-bleed (Example 4, Table 34); parameters: TRIG Pre-Bleed / TRIG Post-Bleed / CHOL Pre-Bleed / CHOL Post-Bleed / Glucose Pre-Bleed / Glucose Post-Bleed: unit not given here; conditions: C57/BL6 mice; for CHOL Pre-Bleed / Glucose Pre-Bleed / TRIG Pre-Bleed: pre-treatment bleed; for CHOL Post-Bleed / Glucose Post-Bleed / TRIG Post-Bleed: post-treatment bleed, 48 h

148364 (antisense eT*eG*e[5mC]*eA*e[5mC]*dT*dT*dT*dG*dT*dG*dG*dT*dA*d[5mC]*e[5mC]*eA*eA*eG*eG) [compound 148364]
Organ weight: Kidney ([1]; 6.25 mg/kg single i.p.): 104 % saline control
Organ weight: Liver ([1]; 6.25 mg/kg single i.p.): 101 % saline control
Organ weight: Spleen ([1]; 6.25 mg/kg single i.p.): 113 % saline control
Organ weight: WAT ([1]; 6.25 mg/kg single i.p.): 89 % saline control
Organ weight: Kidney ([1]; 12.5 mg/kg single i.p.): 108 % saline control
Organ weight: Liver ([1]; 12.5 mg/kg single i.p.): 100 % saline control
Organ weight: Spleen ([1]; 12.5 mg/kg single i.p.): 96 % saline control
Organ weight: WAT ([1]; 12.5 mg/kg single i.p.): 84 % saline control
Organ weight: Kidney ([1]; 25 mg/kg single i.p.): 112 % saline control
Organ weight: Liver ([1]; 25 mg/kg single i.p.): 103 % saline control
Organ weight: Spleen ([1]; 25 mg/kg single i.p.): 115 % saline control
Organ weight: WAT ([1]; 25 mg/kg single i.p.): 75 % saline control
Organ weight: Kidney ([1]; 50 mg/kg single i.p.): 108 % saline control
Organ weight: Liver ([1]; 50 mg/kg single i.p.): 103 % saline control
Organ weight: Spleen ([1]; 50 mg/kg single i.p.): 123 % saline control
Organ weight: WAT ([1]; 50 mg/kg single i.p.): 80 % saline control
GCGR mRNA levels in liver ([2]; 0.32 μmol/kg single i.p.): 105% of saline control
GCGR mRNA levels in liver ([2]; 1 μmol/kg single i.p.): 106% of saline control
GCGR mRNA levels in liver ([2]; 3.2 μmol/kg single i.p.): 73% of saline control
GCGR mRNA levels in liver ([2]; 10 μmol/kg single i.p.): 38% of saline control
ALT Pre-Bleed ([3]; 6.25 mg/kg dose group): 28 IU/L
AST Pre-Bleed ([3]; 6.25 mg/kg dose group): 47 IU/L
ALT Pre-Bleed ([3]; 12.5 mg/kg dose group): 23 IU/L
AST Pre-Bleed ([3]; 12.5 mg/kg dose group): 44 IU/L
ALT Pre-Bleed ([3]; 25 mg/kg dose group): 26 IU/L
AST Pre-Bleed ([3]; 25 mg/kg dose group): 42 IU/L
ALT Pre-Bleed ([3]; 50 mg/kg dose group): 24 IU/L
AST Pre-Bleed ([3]; 50 mg/kg dose group): 40 IU/L
ALT Post-Bleed ([3]; single i.p. dose 6.25 mg/kg): 34 IU/L
AST Post-Bleed ([3]; single i.p. dose 6.25 mg/kg): 76 IU/L
ALT Post-Bleed ([3]; single i.p. dose 12.5 mg/kg): 32 IU/L
AST Post-Bleed ([3]; single i.p. dose 12.5 mg/kg): 69 IU/L
ALT Post-Bleed ([3]; single i.p. dose 25 mg/kg): 35 IU/L
AST Post-Bleed ([3]; single i.p. dose 25 mg/kg): 87 IU/L
ALT Post-Bleed ([3]; single i.p. dose 50 mg/kg): 40 IU/L
AST Post-Bleed ([3]; single i.p. dose 50 mg/kg): 115 IU/L
GCGR mRNA levels in liver ([4]; 6.25 mg/kg single i.p., Table 35 comparison ISIS 148364 & ISIS 386626): 62% of saline control
GCGR mRNA levels in liver ([4]; 6.25 mg/kg single i.p., Table 36 comparison ISIS 148364 & ISIS 386627): 86% of saline control
GCGR mRNA levels in liver ([4]; 6.25 mg/kg single i.p., Table 37 comparison ISIS 148364 & ISIS 386593): 86% of saline control
GCGR mRNA levels in liver ([4]; 6.25 mg/kg single i.p., Table 38 comparison ISIS 148364 & ISIS 386628): 101% of saline control
GCGR mRNA levels in liver ([4]; 6.25 mg/kg single i.p., Table 39 comparison ISIS 148364 & ISIS 386594): 96% of saline control
GCGR mRNA levels in liver ([4]; 12.5 mg/kg single i.p., Table 35 comparison ISIS 148364 & ISIS 386626): 87% of saline control
GCGR mRNA levels in liver ([4]; 12.5 mg/kg single i.p., Table 36 comparison ISIS 148364 & ISIS 386627): 105% of saline control
GCGR mRNA levels in liver ([4]; 12.5 mg/kg single i.p., Table 37 comparison ISIS 148364 & ISIS 386593): 105% of saline control
GCGR mRNA levels in liver ([4]; 12.5 mg/kg single i.p., Table 38 comparison ISIS 148364 & ISIS 386628): 98% of saline control
GCGR mRNA levels in liver ([4]; 12.5 mg/kg single i.p., Table 39 comparison ISIS 148364 & ISIS 386594): 102% of saline control
GCGR mRNA levels in liver ([4]; 25 mg/kg single i.p., Table 35 comparison ISIS 148364 & ISIS 386626): 79% of saline control
GCGR mRNA levels in liver ([4]; 25 mg/kg single i.p., Table 36 comparison ISIS 148364 & ISIS 386627): 87% of saline control
GCGR mRNA levels in liver ([4]; 25 mg/kg single i.p., Table 37 comparison ISIS 148364 & ISIS 386593): 74% of saline control
GCGR mRNA levels in liver ([4]; 25 mg/kg single i.p., Table 38 comparison ISIS 148364 & ISIS 386628): 77% of saline control
GCGR mRNA levels in liver ([4]; 25 mg/kg single i.p., Table 39 comparison ISIS 148364 & ISIS 386594): 98% of saline control
GCGR mRNA levels in liver ([4]; 50 mg/kg single i.p., Table 35 comparison ISIS 148364 & ISIS 386626): 36% of saline control
GCGR mRNA levels in liver ([4]; 50 mg/kg single i.p., Table 36 comparison ISIS 148364 & ISIS 386627): 63% of saline control
GCGR mRNA levels in liver ([4]; 50 mg/kg single i.p., Table 37 comparison ISIS 148364 & ISIS 386593): 56% of saline control
GCGR mRNA levels in liver ([4]; 50 mg/kg single i.p., Table 38 comparison ISIS 148364 & ISIS 386628): 42% of saline control
GCGR mRNA levels in liver ([4]; 50 mg/kg single i.p., Table 39 comparison ISIS 148364 & ISIS 386594): 59% of saline control
CHOL Pre-Bleed ([5]; 6.25 mg/kg group): 86
Glucose Pre-Bleed ([5]; 6.25 mg/kg group): 226
TRIG Pre-Bleed ([5]; 6.25 mg/kg group): 86
CHOL Post-Bleed ([5]; 6.25 mg/kg single i.p.): 89
Glucose Post-Bleed ([5]; 6.25 mg/kg single i.p.): 215
TRIG Post-Bleed ([5]; 6.25 mg/kg single i.p.): 162
CHOL Pre-Bleed ([5]; 12.5 mg/kg group): 85
Glucose Pre-Bleed ([5]; 12.5 mg/kg group): 198
TRIG Pre-Bleed ([5]; 12.5 mg/kg group): 106
CHOL Post-Bleed ([5]; 12.5 mg/kg single i.p.): 89
Glucose Post-Bleed ([5]; 12.5 mg/kg single i.p.): 256
TRIG Post-Bleed ([5]; 12.5 mg/kg single i.p.): 179
CHOL Pre-Bleed ([5]; 25 mg/kg group): 83
Glucose Pre-Bleed ([5]; 25 mg/kg group): 219
TRIG Pre-Bleed ([5]; 25 mg/kg group): 115
CHOL Post-Bleed ([5]; 25 mg/kg single i.p.): 96
Glucose Post-Bleed ([5]; 25 mg/kg single i.p.): 239
TRIG Post-Bleed ([5]; 25 mg/kg single i.p.): 200
CHOL Pre-Bleed ([5]; 50 mg/kg group): 81
Glucose Pre-Bleed ([5]; 50 mg/kg group): 207
TRIG Pre-Bleed ([5]; 50 mg/kg group): 110
CHOL Post-Bleed ([5]; 50 mg/kg single i.p.): 94
Glucose Post-Bleed ([5]; 50 mg/kg single i.p.): 228
TRIG Post-Bleed ([5]; 50 mg/kg single i.p.): 177
